Structures can show the parent of a compound that is named as a salt.
Assay: Solubility of dicyclohexylamine salts: amounts of solvents needed to dissolve each compound at reflux
Format: physicochemical
Details: amounts approximate, same quantity of each compound
Text: In particular, the amounts of solvents needed to dissolve each compound at reflux are provided.
The amounts of solvents needed to dissolve the salts are approximate.

| SMILES | amount of solvent needed to dissolve the compound at reflux (acetone) | amount of solvent needed to dissolve the compound at reflux (isopropyl acetate) |
| --- | --- | --- |
| CC(=O)c1ccccc1CC[C@@H](SCC1(CC(=O)O)CC1)c1cccc(/C=C/c2ccc3ccc(Cl)cc3n2)c1 [IIa, (R)-(E)-1-(((1-(3-(2-(7-chloro-2-quinolinyl)ethenyl)phenyl)-3-(2-acetylphenyl)propyl)thio)methyl)cyclopropane acetic acid dicyclohexylamine salt] | 100 volumes acetone | 45 volumes isopropyl acetate |
| COC(=O)c1ccccc1CC[C@@H](SCC1(CC(=O)O)CC1)c1cccc(/C=C/c2ccc3ccc(Cl)cc3n2)c1 [R = —CO2CH3] | 50 volumes acetone | 20 volumes isopropyl acetate |

Reference: patent publication US8163924B2, “Process for preparing a leukotriene antagonist and an intermediate thereof” (Moehs Ibérica, S.L., priority 2007, dated 2012)
